The text below walks through data of patent US10202381B2, “Histone demethylase inhibitors” (CELGENE QUANTICEL RESEARCH, INC., priority 2014, dated 2019).

A word on the IC50: it is the point on the concentration scale where inhibition reaches its midpoint.

Read-outs that look alike come from different tables or passages of the source. Some results are limits rather than exact numbers.

One assay has as its target JMJD2C (Homo sapiens (Human), UniProt Q9H3R0). Nature of the assay: In vitro enzyme inhibition assay (JMJD2C TR-FRET). In kind it is biochemical. Particulars: 0.3 nM JMJD2C, 300 nM H3K9me3-biotin peptide, 2 μM alpha-ketoglutaric acid. The procedure: This assay determines the ability of a test compound to inhibit JMJD2C demethylase activity. Baculovirus expressed JMJD2C (GenBank Accession #BC143571, AA 2-372) was purchased from BPS Bioscience (Cat#50105).
The ability of test compounds to inhibit the activity of JMJD2C was determined in 384-well plate-format under the following reaction conditions: 0.3 nM JMJD2C, 300 nM H3K9me3-biotin labeled peptide (Anaspec cat #64360), 2 μM alpha-ketoglutaric acid in assay buffer of 50 mM HEPES, pH 7.3, 0.005% Brij35, 0.5 mM TCEP, 0.2 mg/ml BSA, 50 μM sodium L-ascorbate, and 2 μM ammonium iron(II) sulfate. Reaction product was determined quantitatively by TR-FRET after the addition of detection reagent Phycolink Streptavidin-allophycocyanin (Prozyme) and Europium-anti-di-methylated histone H3 lysine 9 (H3K9me2) antibody (PerkinElmer) in the presence of 5 mM EDTA in LANCE detection buffer (PerkinElmer) at a final concentration of 50 nM and 1 nM, respectively.
The assay reaction was initiated by the following: 2 μl of the mixture of 900 nM H3K9me3-biotin labeled peptide and 6 μM alpha-ketoglutaric acid with 2 μl of 11-point serial diluted inhibitor in 3% DMSO were added to each well of the plate, followed by the addition of 2 μl of 0.9 nM JMJD2C to initiate the reaction. The reaction mixture was incubated at room temperature for 30 min, and terminated by the addition of 6 μl of 5 mM EDTA in LANCE detection buffer containing 100 nM Phycolink Streptavidin-allophycocyanin and 2 nM Europium-anti-H3K9me2 antibody. Plates were read by EnVisionMultilabel Reader in TR-FRET mode (excitation at 320 nm, emission at 615 nm and 665 nm) after 1 hr incubation at room temperature. A ratio was calculated (665/615) for each well and fitted to determine inhibition constant (IC50).
The ability of the compounds disclosed herein to inhibit demethylase activity was quantified and the respective IC50 value was determined. Table 3 provides the IC50 values of various compounds disclosed herein.
In general terms: TR-FRET usually uses a lanthanide donor and a delayed reading to cut background.

Assay [1] relates to KYSE-150 esophageal carcinoma cell line. Nature of the assay: In vitro cell-based assay: BrdU cell proliferation ELISA. Further details: species or system human. Particulars: KYSE-150 cells, BrdU incorporation after 168 hr of compound incubation, read-out: Cellular IC50. The procedure: Cell lines tested include the JMJD2C gene amplified cell line KYSE-150. This is a quantitative ELISA assay measuring DNA incorporation of BrdU during S-phase as a direct readout of cellular proliferation.
Assay Principle: This is a colorimetric immunoassay for the quantification of cell proliferation. Cells treated for 168 hr with test compounds are assayed for their ability to go through S-phase as a measure of their proliferative potential.
Assay Method: The human KYSE-150 (SMAD4 mut, TP53 mut) esophageal carcinoma cell line was seeded at 2,000 cells/well on a 96-well tissue culture treated plate. After an overnight incubation, cells were treated with compound in an 11-point dilution series with final concentrations ranging from 100 μM to 2 nM. Cells were then incubated in the presence of compound for 168 hr. After compound incubation the cells were assayed using a BrdU Cell Proliferation ELISA (Roche). The cells were first incubated with BrdU labeling reagent for 2 hr. After 2 hr, the BrdU incorporated cells were fixed and denatured, probed with an anti-BrdU-Peroxidase antibody for 1.5 hr and washed. Finally, a tetramethylbenzidine peroxidase substrate was added to each well for 15 min. followed by a H2SO4 stop solution. The plate was read at 450 nm, and the raw optical density data was transferred into XLFit (IDBS) for IC50 calculation using the formula: fit=(D+((Vmax*(x^n))/((x^n)+(Km^n)))).
Table 4 provides the cellular IC50 values of various compounds disclosed herein.
(In an ELISA, binding on a coated surface is turned into a signal by an enzyme label.)

JMJD2C, sequence (Q9H3R0 2-372): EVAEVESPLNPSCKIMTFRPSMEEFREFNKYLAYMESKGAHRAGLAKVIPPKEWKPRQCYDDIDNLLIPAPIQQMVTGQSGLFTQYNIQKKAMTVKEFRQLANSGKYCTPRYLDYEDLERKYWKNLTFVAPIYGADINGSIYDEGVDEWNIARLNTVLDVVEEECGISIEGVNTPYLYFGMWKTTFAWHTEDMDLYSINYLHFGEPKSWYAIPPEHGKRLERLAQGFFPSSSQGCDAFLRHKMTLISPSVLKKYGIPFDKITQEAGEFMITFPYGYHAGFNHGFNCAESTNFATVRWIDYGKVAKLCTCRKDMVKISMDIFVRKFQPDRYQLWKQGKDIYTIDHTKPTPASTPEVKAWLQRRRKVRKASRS

Take `CC(C)c1ccc(N(c2ccc(Oc3nc(O)c4ccncc4n3)cc2)C2CCNC2)cc1` (stereo not shown) [Example 126, 2-(4-((4-isopropylphenyl)(pyrrolidin-3-yl)amino)phenoxy)pyrido[3,4-d]pyrimidin-4-ol]: the half-inhibitory concentration (IC50) (on JMJD2C; in assay [1] (Homo sapiens)) was not above 100 nM in each case.
On to `CN1CCN(c2cc(N(C)c3ccc(Oc4nc(O)c5ccncc5n4)cc3)ccc2OCC(F)(F)F)CC1` [Example 136, -(4-(methyl(3-(4-methylpiperazin-1-yl)-4-(2,2,2-trifluoroethoxy)phenyl)amino)phenoxy)pyrido[3,4-d]pyrimidin-4-ol], for which the results for the concentration for half-maximal inhibition (IC50) (against JMJD2C; in assay [1] (Homo sapiens)) were not above 100 nM and 1000 to 10000 nM, respectively.
On to `CC(C)c1ccc(N(c2ccc(Oc3nc(O)c4ccncc4n3)cc2)C2CCOCC2)cc1` [Example 118, 2-(4-((4-isopropylphenyl)(tetrahydro-2H-pyran-4-yl)amino)phenoxy)pyrido[3,4-d]pyrimidin-4-ol], for which the IC50 in assay [1] (Homo sapiens) was 1000 to 10000 nM.
`Cc1cc(Oc2nc(O)c3ccncc3n2)ccc1N(C)c1ccc(C(C)(C)C)cc1` [Example 148, 2-(4-((4-(tert-butyl)phenyl)(methyl)amino)-3-methylphenoxy)pyrido[3,4-d]pyrimidin-4-ol]: on JMJD2C, the IC50 fell in the range of 100 to 1000 nM.
On to `Cc1cc(Oc2nc(O)c3ccncc3n2)ccc1N(C)c1cccc(N2CCN(C)CC2)c1` [Example 134, 2-(3-methyl-4-(methyl(3-(4-methyl-piperazin-1-yl)phenyl)amino)phenoxy)pyrido[3,4-d]pyrimidin-4-ol], for which the figures for the IC50 (against JMJD2C; in assay [1] (Homo sapiens)) were not above 100 nM and 1000 to 10000 nM, respectively.
On the same counts, the results for `Cc1ccc2c(ccn2-c2ccc(Oc3nc(O)c4ccncc4n3)cc2)c1` [Example 129, 2-(4-(5-methyl-1H-indol-1-yl)phenoxy)pyrido[3,4-d]pyrimidin-4-ol] are not above 100 nM and 1000 to 10000 nM.
With `Cc1ccc2c(c1)CCN2c1ccc(Oc2nc(O)c3ccncc3n2)cc1` [Example 128], the IC50 (on JMJD2C; in assay [1] (Homo sapiens)) was not above 100 nM in each case.
In turn, `CC(C)c1ccc(N(C)c2ccc(Oc3nc(O)c4ccncc4n3)cc2C(F)(F)F)cc1` [Example 143, 2-(4-((4-isopropylphenyl)(methyl)amino)-3-(trifluoromethyl)phenoxy)pyrido[3,4-d]pyrimidin-4-ol] had a half-inhibitory concentration (IC50) against JMJD2C of 1000 to 10000 nM.
In the case of “2-(4-{[4-(4-amino-piperidin-1-yl)-phenyl]-methyl-amino}-phenoxy)-pyrido[3,4-d]pyrimidin-4-ol [Example 23]”, the values for the half-inhibitory concentration (IC50) (against JMJD2C; in assay [1]) were 100 to 1000 nM and 1000 to 10000 nM, respectively.
`CCOc1ccc(N2CCN(C)CC2)cc1N(C)c1ccc(Oc2nc(O)c3ccncc3n2)cc1` [Example 146, 2-(4-((2-ethoxy-5-(4-methylpiperazin-1-yl)phenyl)(methyl)amino)phenoxy)pyrido[3,4-d]pyrimidin-4-ol] yielded an IC50 at JMJD2C not above 100 nM.
For `CN1CC=C(c2cccc(N(C)c3ccc(Oc4nc(O)c5ccncc5n4)cc3)c2)CC1` [Example 139, 2-(4-(methyl(3-(1-methyl-1,2,3,6-tetrahydropyridin-4-yl)phenyl)amino)phenoxy)pyrido[3,4-d]pyrimidin-4-ol], at JMJD2C, the IC50 was not above 100 nM.
As to `CC(C)c1ccc(N(c2ccc(Oc3nc(O)c4ccncc4n3)cc2)C(C)C)cc1` [Example 122], the IC50 against JMJD2C lay in the range of 1000 to 10000 nM.
For the compound `CC(C)c1ccc(N(c2ccc(Oc3nc(O)c4ccncc4n3)cc2)C2CCN(C)C2)cc1` (stereo not shown) [Example 127, 2-(4-((4-isopropylphenyl)(1-methylpyrrolidin-3-yl)amino)phenoxy)pyrido[3,4-d]pyrimidin-4-ol], the concentration for half-maximal inhibition (IC50) at JMJD2C was not above 100 nM; in assay [1] (Homo sapiens), more than 10000 nM.
In the case of `CC(C)c1ccc(N(c2ccc(Oc3nc(O)c4ccncc4n3)cc2)C2CCCC2)cc1` [Example 125, 2-(4-(cyclopentyl(4-isopropylphenyl)amino)phenoxy)pyrido[3,4-d]pyrimidin-4-ol], the IC50 against JMJD2C is 1000 to 10000 nM; in assay [1] (Homo sapiens), not above 100 nM.
On the same counts, the results for `Cc1cc(Oc2nc(O)c3ccncc3n2)ccc1N(C)c1ccc(C(C)C)cc1` [Example 131, 2-(4-((4-isopropylphenyl)(methyl)amino)-3-methylphenoxy)pyrido[3,4-d]pyrimidin-4-ol] are 100 to 1000 nM and more than 10000 nM.
Consider `COc1ccc(N2CCN(C)CC2)cc1N(C)c1ccc(Oc2nc(O)c3ccncc3n2)cc1` [Example 145, 2-(4-((2-methoxy-5-(4-methylpiperazin-1-yl)phenyl)(methyl)amino)phenoxy)pyrido[3,4-d]pyrimidin-4-ol], for which the IC50 at JMJD2C is not above 100 nM.
For the compound `CCc1ccc(N(C)c2ccc(Oc3nc(O)c4ccncc4n3)cc2)cc1OC` [Example 135, 2-(4-((4-ethyl-3-methoxyphenyl)(methyl)amino)phenoxy)pyrido[3,4-d]pyrimidin-4-ol], the IC50 against JMJD2C lay within 100 to 1000 nM; in assay [1] (Homo sapiens), 1000 to 10000 nM.
The compound `CCc1ccc(N(C)c2ccc(Oc3nc(O)c4ccncc4n3)cc2C)cc1` [Example 144, 2-(4-((4-ethylphenyl)(methyl)amino)-3-methylphenoxy)pyrido[3,4-d]pyrimidin-4-ol] displayed an IC50 against JMJD2C not above 100 nM.
At JMJD2C, `CN(c1ccc(Oc2nc(O)c3ccncc3n2)cc1)c1ccc2c(c1)OCC2(C)C` [Example 116] showed an IC50 of 100 to 1000 nM.
At JMJD2C, `Cc1ccc(N2CCN(C)CC2)cc1N(C)c1ccc(Oc2nc(O)c3ccncc3n2)cc1` [Example 147, 2-(4-(methyl(2-methyl-5-(4-methylpiperazin-1-yl)phenyl)amino)phenoxy)pyrido[3,4-d]pyrimidin-4-ol] yielded a 50% inhibitory concentration (IC50) not above 100 nM.
Consider `CCN(c1ccc(Oc2nc(O)c3ccncc3n2)cc1)c1cccc(N2CCN(C)CC2)c1` [Example 141, 2-(4-(ethyl(3-(4-methylpiperazin-1-yl)phenyl)amino)phenoxy)pyrido[3,4-d]pyrimidin-4-ol], for which the IC50 (against JMJD2C; in assay [1] (Homo sapiens)) was not above 100 nM throughout.
In the case of `CC(C)c1ccc(N(c2ccc(Oc3nc(O)c4ccncc4n3)cc2)C2CCCNC2)cc1` (stereo not shown) [Example 130, 2-(4-((4-isopropylphenyl)(piperidin-3-yl)amino)phenoxy)pyrido[3,4-d]pyrimidin-4-ol], the IC50 against JMJD2C was not above 100 nM; in assay [1] (Homo sapiens), more than 10000 nM.
Consider `CN1CCC(c2cccc(N(C)c3ccc(Oc4nc(O)c5ccncc5n4)cc3)c2)CC1` [Example 140, 2-(4-(methyl(3-(1-methylpiperidin-4-yl)phenyl)amino)phenoxy)pyrido[3,4-d]pyrimidin-4-ol], for which the results for the concentration for half-maximal inhibition (IC50) (on JMJD2C; in assay [1] (Homo sapiens)) were not above 100 nM and 100 to 1000 nM, respectively.
With `CN1CCN(c2cccc(N(CC3CC3)c3ccc(Oc4nc(O)c5ccncc5n4)cc3)c2)CC1` [Example 142, 2-(4-((cyclopropylmethyl)(3-(4-methylpiperazin-1-yl)phenyl)amino)phenoxy)pyrido[3,4-d]pyrimidin-4-ol], the 50% inhibitory concentration (IC50) at JMJD2C is not above 100 nM.
At JMJD2C, `CCCc1ccc(N(C)c2ccc(Oc3nc(O)c4ccncc4n3)cc2C)cc1` [Example 149, 2-(3-methyl-4-(methyl(4-propylphenyl)amino)phenoxy)pyrido[3,4-d]pyrimidin-4-ol] came in with a concentration for half-maximal inhibition (IC50) of 100 to 1000 nM.
`CC(C)CN(c1ccc(Oc2nc(O)c3ccncc3n2)cc1)c1ccc(C(C)C)cc1` [Example 123, 2-(4-(isobutyl(4-isopropylphenyl)amino)phenoxy)pyrido[3,4-d]pyrimidin-4-ol] had an IC50 against JMJD2C of 1000 to 10000 nM.
In the case of `CC(C)N1CCN(c2cccc(N(C)c3ccc(Oc4nc(O)c5ccncc5n4)cc3)c2)CC1` [Example 132, 2-(4-((3-(4-isopropylpiperazin-1-yl)phenyl)(methyl)amino)phenoxy)pyrido[3,4-d]pyrimidin-4-ol], the concentration for half-maximal inhibition (IC50) in assay [1] (Homo sapiens) was 100 to 1000 nM.
